Assay results as given in patent US7504380B2, “Antimicrobial peptide isolated from halocynthia aurantium” (Industry-Academic Cooperation Foundation, Hoseo University, priority 2002, dated 2009).

How the values were obtained:
[1] = tested on: methicillin resistance Staphylococcus aureus (MRSA); assay: ultrasensitive radial diffusion assay, MRSA; assay type: cell-based; set-up: antimicrobial activity according to pH, MRSA / antimicrobial activity according to NaCl, MRSA: unit not given here; settings: for antimicrobial activity to MRSA strain (diameter of clear zone): according to the concentration of the peptides, FIG. 9A, 9C
Protocol: (§1) In order to measure the antimicrobial activity of acid extracts of Halocynthia aurantium obtained in the above Example <1-1>, the present inventors performed ultrasensitive radial diffusion assay. Particularly, analyzed 150 fractions eluted in the above Example <1-1> 5 times each. Took 100 μl from 2 ml of each fraction and concentrated thereof with a vacuum centrifugation (Centra Evaporator, Bioneer, Korea), which was suspended in 5 μl of 0.01% acetic acid solution. Meanwhile, prepared agarose plate including wells 3 mm in diameter by adding methicillin resistance Staphylococcus aureus (referred as “MRSA” hereinafter, Seoul Women's University, Korea CCARM3001) of mid-logarithmic phase to gel comprising sterilized citrate phosphate buffer (9 mM sodium phosphate, 1 mM sodium citrate, pH 7.4), 1% (w/v) type 1 agarose (low electroendosmosis agarose) (A 6013, Sigma) and 3% tryptic soy broth (TSB, Difco, Detroit, Mich., USA). Loaded the above fractions onto the wells of agarose plate containing the above bacteria. Reacted thereof for 3 hours to make the peptides spread into the agarose gel. Added 10 ml of overnutrition medium comprising 6% TSB and 1% agarose gel thereto. Cultured the above plate for overnight until the colonies of the above bacteria were formed. Confirmed the antimicrobial activity of the loaded peptide by measuring the diameter of clearing zone formed around the loaded peptide fraction.
(§2) The present inventors performed ultra-sensitive radical diffusion assay with synthetic peptides prepared in the above Example <2-2>. Particularly, measured antimicrobial activity of each 15Hc, di-15Hc, 18Hc, di-18Hc, halocidin, magainin 1 (Sigma) (control group) and buforin 2 (Sigma) (comparative group) against MRSA and multi drug resistance Pseudomonas aeruginosa (referred as “MDRPA” hereinafter)(Seoul Women's University CCARM2002) according to the concentration of the peptides.
(§3) Particularly, adjusted the pH of media to 7.4, 6.5 and 5.5 respectively by adding HCl, which was checked with a pH meter, and performed radical diffusion assay with the same method as the above Example 1 to investigate the antimicrobial activity to MRSA and Enterococcus faecalis.
(§4) Particularly, changed the basic condition of media by adding 100 mM NaCl, 150 mM NaCl and 200 mM NaCl respectively, and investigated the antimicrobial activity to MRSA and Enterococcus faecalis by radical diffusion assay.

human erythrocytes = assay type: cell-based
Protocol: In order to investigate […] of halocidin, the present inventors performed hemolytic assay. Particularly, mixed 20 μl of peptide diluted to 100, 50, 25, 12.5, 6.25, 3.125 μg/ml and 180 μl of 2.5% (V/V) human erythrocytes in PBS. Used melittin (Sigma) and clavanin AK, a congener in which clavanin A residue was substituted, for comparative group, and 0.01% acetic acid for control group. After reacting the mixture at 37° C. for 30 minutes, added 600 μl of PBS into each tube. Centrifuged the solution at 10,000 g for 3 minutes and separated supernatants. Measured OD at 540 nm and calculated the hemolytic activity (%) according to the below <Mathematical Formula 1>.

MRSA strain = assay: colony counting assay, MRSA; assay type: cell-based, Staphylococcus aureus; settings: peptide 5 μg/ml, 5 and 15 minutes; FIG. 10
Protocol: (§5) In order to investigate antimicrobial activity of halocidin, the present inventors performed colony counting assay. Particularly, adjusted the final concentration of the peptide to 5 μg/ml by mixing the peptide and MRSA strain or MDRPA strain of mid-log phase in sterilized 10 mM sodium phosphate buffer (pH 7.4) containing 0.3 mg/id of TSB powder. Adjusted the final volume of the above mixture to 100 μl, and then let it be pre-reacted in a 37° C. shaking water bath for 5 and 15 minutes each. Collected 20 μl of pre-reacted solution and loaded thereof onto 1.5% bacto-agar plate (Difco). Induced reaction for overnight and counted the number of formed colonies on the above plate, from which measured the antimicrobial activity. Used magainin 1 and buforin 2 for comparative group, and 0.01% acetic acid for control group.

[2] = tested on: multi drug resistance Pseudomonas aeruginosa (MDRPA); assay: ultra-sensitive radial diffusion assay, MDRPA; assay type: cell-based; settings: according to the concentration of the peptides; FIG. 9B, 9D
Protocol: as §1, §2

[3] = tested on: Gram negative bacteria such as Pseudomonas aeruginosa, Salmonella cholerasuis, Salmonella parotyphi A, E. coli K112 and E. coli DH5α; assay: radial diffusion assay, Gram-negative bacteria; assay type: cell-based; settings: FIG. 12-14
[4] = tested on: Gram-positive bacteria such as Staphylococcus aureus, Micrococcus luteus, Enterococcus faecalis, Bacillus subtilus and MRSA; assay: radial diffusion assay, Gram-positive bacteria; assay type: cell-based; settings: FIG. 15-17
Protocol: In order to measure the antimicrobial activity of acid extracts of Halocynthia aurantium obtained in the above Example <1-1>, the present inventors performed ultrasensitive radial diffusion assay. Particularly, analyzed 150 fractions eluted in the above Example <1-1> 5 times each. Took 100 μl from 2 ml of each fraction and concentrated thereof with a vacuum centrifugation (Centra Evaporator, Bioneer, Korea), which was suspended in 5 μl of 0.01% acetic acid solution. Meanwhile, prepared agarose plate including wells 3 mm in diameter by adding methicillin resistance Staphylococcus aureus (referred as “MRSA” hereinafter, Seoul Women's University, Korea CCARM3001) of mid-logarithmic phase to gel comprising sterilized citrate phosphate buffer (9 mM sodium phosphate, 1 mM sodium citrate, pH 7.4), 1% (w/v) type 1 agarose (low electroendosmosis agarose) (A 6013, Sigma) and 3% tryptic soy broth (TSB, Difco, Detroit, Mich., USA). Loaded the above fractions onto the wells of agarose plate containing the above bacteria. Reacted thereof for 3 hours to make the peptides spread into the agarose gel. Added 10 ml of overnutrition medium comprising 6% TSB and 1% agarose gel thereto. Cultured the above plate for overnight until the colonies of the above bacteria were formed. […]

MDRPA strain = assay: colony counting assay, MDRPA; assay type: cell-based, Pseudomonas aeruginosa; settings: peptide 5 μg/ml, 5 and 15 minutes; FIG. 10
Protocol: as §5

Enterococcus faecalis = assay: radial diffusion assay, Enterococcus faecalis; assay type: cell-based; set-up: unit not given here
Protocol: as §1, §3, §4

| Substance | antimicrobial activity to MRSA strain (diameter of clear zone) [1] | hemolytic activity (human erythrocytes) [%] | antimicrobial activity by colony counting, MRSA (MRSA strain) | antimicrobial activity to MDRPA strain (diameter of clear zone) [2] | antimicrobial activity to Gram-negative bacteria [3] | antimicrobial activity to Gram-positive bacteria [4] | antimicrobial activity by colony counting, MDRPA (MDRPA strain) | antimicrobial activity according to NaCl, MRSA ([1]; NaCl 100 mM) | antimicrobial activity according to NaCl, MRSA ([1]; NaCl 150 mM) | antimicrobial activity according to NaCl, MRSA ([1]; NaCl 200 mM) | antimicrobial activity according to pH, MRSA ([1]; pH = 5.5) | antimicrobial activity according to pH, MRSA ([1]; pH = 6.5) | antimicrobial activity according to pH, MRSA ([1]; pH = 7.4) | antimicrobial activity according to NaCl, Enterococcus faecalis (Enterococcus faecalis; NaCl 100 mM) | antimicrobial activity according to NaCl, Enterococcus faecalis (Enterococcus faecalis; NaCl 150 mM) | antimicrobial activity according to NaCl, Enterococcus faecalis (Enterococcus faecalis; NaCl 200 mM) | antimicrobial activity according to pH, Enterococcus faecalis (Enterococcus faecalis; pH = 5.5) | antimicrobial activity according to pH, Enterococcus faecalis (Enterococcus faecalis; pH = 6.5) | antimicrobial activity according to pH, Enterococcus faecalis (Enterococcus faecalis; pH = 7.4) |
| --- | --- | --- | --- | --- | --- | --- | --- | --- | --- | --- | --- | --- | --- | --- | --- | --- | --- | --- | --- |
| WLNALLHHGLNCAKGVLA (PEPTIDE (1)..(1) 18mer of halocydin; listed as Halocynthia aurantium) [Peptide 18Hc, ID; No 1] | higher antimicrobial activity than buforin 2 | 9 | high antimicrobial activity | higher antimicrobial activity than comparative group | hardly showed or had minimum antimicrobial activity | low antimicrobial activity | high antimicrobial activity |  |  |  |  |  |  |  |  |  |  |  |  |
| Secrofin A |  |  |  |  |  |  |  | >64 | >64 | >64 | >64 | >64 | >64 | >64 | >64 | >64 | >64 | >64 | >64 |
| KWLNALLHHGLNCAKGVLA (PEPTIDE (1)..(19) 19mer of halocydin; listed as Halocynthia aurantium) [K(18 + 1)Hc, ID; No 9] |  |  |  |  |  |  |  | 16-32 | 16-32 | 32-64 | 32-64 | 16-32 | 16-32 | 16-32 | 16-32 | 16-32 | 16-32 | 16-32 | 8-16 |
| 15Hc: 15-amino-acid monomer of halocidin; 18Hc lacking three N-terminal amino acids, SEQ. ID. No 2 (WLNALLHHGLNCAKG; PEPTIDE (1)..(1) 15mer of halocydin; listed as Halocynthia aurantium) [Peptide 15Hc, 15-amino-acid monomer of halocidin; ID; No 2] |  | 0 |  | higher antimicrobial activity than comparative group | hardly showed or had minimum antimicrobial activity | low antimicrobial activity |  |  |  |  |  |  |  |  |  |  |  |  |  |
| Magainin 1 (GIGKFLHSAGKFGKAFVGEIMKS; Magainin-1; UniProt P11006 37-59, looked up) [magainin 1 (Sigma), control/comparative antimicrobial peptide] |  |  |  | proved to have antimicrobial activity |  |  |  | >64 | >64 | >64 | >64 | >64 | >64 | >64 | >64 | >64 | >64 | >64 | >64 |
| Buforin 2 | proved to have antimicrobial activity |  |  | proved to have antimicrobial activity |  |  |  | >64 | >64 | >64 | >64 | >64 | >64 | >64 | >64 | >64 | >64 | >64 | >64 |
